# From ChEMBL document CHEMBL4393686, “InCl3 mediated heteroarylation of indoles and their derivatization via CH activation strategy: Discovery of 2-(1H-indol-3-yl)-quinoxaline derivatives as a new class of PDE4B selective inhibitors for arthritis and/or multiple sclerosis” (Eur J Med Chem, 2019)
# Active and inactive are the calls of the source. The rule behind the calls is not given here.
# Experiments:
# [1] = test system: Rattus norvegicus; assay: Antiarthritic activity in complete Freund's adjuvant-induced Wistar rat arthritis model assessed as reduction in paw volume at 2 mg/kg, ip administered from 11th day to 20th day by vernier caliper analysis; assay type: functional, organism-based
# [2] = target: T1, 3',5'-cyclic-AMP phosphodiesterase 4B (Homo sapiens, UniProt Q07343); assay: Inhibition of recombinant His-tagged human PDE4B expressed in Sf9 cells using cAMP as substrate preincubated with enzyme for 15 mins followed by substrate addition and incubated for 1 hr by PDELight HTS cAMP phosphodiesterase Kit based luminometry
# [3] = target: T1, 3',5'-cyclic-AMP phosphodiesterase 4B; assay: Inhibition of human recombinant His-tagged PDE4B expressed in Sf9 cells using cAMP as substrate at 10 uM preincubated with enzyme for 15 mins followed by substrate addition and incubated for 1 hr by PDELight HTS cAMP phosphodiesterase Kit based luminometry relative to control
# [4] = target: High affinity 3',5'-cyclic-AMP phosphodiesterase 7A (Homo sapiens) (UniProt Q13946); assay: Inhibition of recombinant N-terminal GST tagged human PDE7A1 (122-end aa) expressed in Sf9 cells using FAM-cAMP as substrate at 0.1xIC50 incubated for 60 mins by fluorescence plate reader analysis
# [5] = target: High affinity 3',5'-cyclic-AMP phosphodiesterase 7A (Homo sapiens) (UniProt Q13946); assay: Inhibition of recombinant N-terminal GST tagged human PDE7A1 (122-end aa) expressed in Sf9 cells using FAM-cAMP as substrate at 1xIC50 incubated for 60 mins by fluorescence plate reader analysis
# [6] = target: High affinity 3',5'-cyclic-AMP phosphodiesterase 7A (Homo sapiens) (UniProt Q13946); assay: Inhibition of recombinant N-terminal GST tagged human PDE7A1 (122-end aa) expressed in Sf9 cells using FAM-cAMP as substrate at 10xIC50 incubated for 60 mins by fluorescence plate reader analysis
# [7] = target: 3',5'-cyclic-AMP phosphodiesterase 4D (Homo sapiens, UniProt Q08499); assay: Inhibition of PDE4D2 (unknown origin) using cAMP as substrate preincubated with enzyme for 15 mins followed by substrate addition and incubated for 1 hr by PDELight HTS cAMP phosphodiesterase Kit based luminometry
# [8] = organism: Homo sapiens; assay: Selectivity index, ratio of IC50 for PDE4D2 (unknown origin) to IC50 for recombinant His-tagged human PDE4B expressed in sf9 cells using cAMP as substrate by PDELight HTS cAMP phosphodiesterase Kit based luminometry
# [9] = target: PDE4C (Homo sapiens, UniProt Q08493); assay: Inhibition of PDE4C (unknown origin) at 100 uM using cAMP as substrate preincubated with enzyme for 15 mins followed by substrate addition and incubated for 1 hr by PDELight HTS cAMP phosphodiesterase Kit based luminometry relative to control; details: probe cAMP
# [10] = organism: Homo sapiens; assay: Selectivity for recombinant His-tagged human PDE4B over PDE4C (unknown origin)
# [11] = test system: Danio rerio; assay: Anti-sclerotic activity in MOG/CFA-induced zebra fish EAE model assessed as reduction in lesion score at 1 mg/kg, po measured for 7 days; assay type: functional, organism-based
# [12] = target: Dual specificity calcium/calmodulin-dependent 3',5'-cyclic nucleotide phosphodiesterase 1A (Homo sapiens) (UniProt P54750); assay: Inhibition of recombinant N-terminal GST-tagged full-length human PDE1A1 expressed in Sf9 cells using FAM-cAMP as substrate at 0.1xIC50 incubated for 60 mins by fluorescence plate reader analysis
# [13] = target: Dual specificity calcium/calmodulin-dependent 3',5'-cyclic nucleotide phosphodiesterase 1B (Homo sapiens) (UniProt Q01064); assay: Inhibition of recombinant N-terminal GST tagged full length human PDE1B expressed in Sf9 cells using FAM-cAMP as substrate at 0.1xIC50 incubated for 60 mins by fluorescence plate reader analysis
# [14] = target: Dual specificity calcium/calmodulin-dependent 3',5'-cyclic nucleotide phosphodiesterase 1C (Homo sapiens) (UniProt Q14123); assay: Inhibition of recombinant N-terminal GST tagged human PDE1C (2 to 634 aa) expressed in Sf9 cells at 0.1xIC50 using FAM-cAMP as substrate incubated for 60 mins by fluorescence plate reader analysis
# [15] = target: Dual specificity calcium/calmodulin-dependent 3',5'-cyclic nucleotide phosphodiesterase 1A (Homo sapiens) (UniProt P54750); assay: Inhibition of recombinant N-terminal GST-tagged full-length human PDE1A1 expressed in Sf9 cells using FAM-cAMP as substrate at 1xIC50 incubated for 60 mins by fluorescence plate reader analysis
# [16] = target: Dual specificity calcium/calmodulin-dependent 3',5'-cyclic nucleotide phosphodiesterase 1B (Homo sapiens) (UniProt Q01064); assay: Inhibition of recombinant N-terminal GST tagged full length human PDE1B expressed in Sf9 cells using FAM-cAMP as substrate at 1xIC50 incubated for 60 mins by fluorescence plate reader analysis
# [17] = target: Dual specificity calcium/calmodulin-dependent 3',5'-cyclic nucleotide phosphodiesterase 1C (Homo sapiens) (UniProt Q14123); assay: Inhibition of recombinant N-terminal GST tagged human PDE1C (2 to 634 aa) expressed in Sf9 cells at 1xIC50 using FAM-cAMP as substrate incubated for 60 mins by fluorescence plate reader analysis
# [18] = target: Dual specificity calcium/calmodulin-dependent 3',5'-cyclic nucleotide phosphodiesterase 1A (Homo sapiens) (UniProt P54750); assay: Inhibition of recombinant N-terminal GST-tagged full-length human PDE1A1 expressed in Sf9 cells using FAM-cAMP as substrate at 10xIC50 incubated for 60 mins by fluorescence plate reader analysis
# [19] = target: Dual specificity calcium/calmodulin-dependent 3',5'-cyclic nucleotide phosphodiesterase 1B (Homo sapiens) (UniProt Q01064); assay: Inhibition of recombinant N-terminal GST tagged full length human PDE1B expressed in Sf9 cells using FAM-cAMP as substrate at 10xIC50 incubated for 60 mins by fluorescence plate reader analysis
# [20] = target: Dual specificity calcium/calmodulin-dependent 3',5'-cyclic nucleotide phosphodiesterase 1C (Homo sapiens) (UniProt Q14123); assay: Inhibition of recombinant N-terminal GST tagged human PDE1C (2 to 634 aa) expressed in Sf9 cells at 10xIC50 using FAM-cAMP as substrate incubated for 60 mins by fluorescence plate reader analysis
# [21] = Inhibition of recombinant N-terminal GST-tagged full length human PDE4A1A expressed in Sf9 cells using cAMP as substrate at 0.1xIC50 incubated for 60 mins by fluorescence plate reader analysis
# [22] = target: 3',5'-cyclic-AMP phosphodiesterase 4A (Homo sapiens) (UniProt P27815); assay: Inhibition of recombinant N-terminal GST tagged human PDE4A4B (2-end aa) expressed in Sf9 cells using FAM-cAMP as substrate at 0.1xIC50 incubated for 60 mins by fluorescence plate reader analysis
# [23] = Inhibition of recombinant N-terminal GST-tagged full length human PDE4A1A expressed in Sf9 cells using cAMP as substrate at 1xIC50 incubated for 60 mins by fluorescence plate reader analysis
# [24] = target: 3',5'-cyclic-AMP phosphodiesterase 4A (Homo sapiens) (UniProt P27815); assay: Inhibition of recombinant N-terminal GST tagged human PDE4A4B (2-end aa) expressed in Sf9 cells using FAM-cAMP as substrate at 1xIC50 incubated for 60 mins by fluorescence plate reader analysis
# [25] = Inhibition of recombinant N-terminal GST-tagged full length human PDE4A1A expressed in Sf9 cells using cAMP as substrate at 10xIC50 incubated for 60 mins by fluorescence plate reader analysis
# [26] = target: 3',5'-cyclic-AMP phosphodiesterase 4A (Homo sapiens) (UniProt P27815); assay: Inhibition of recombinant N-terminal GST tagged human PDE4A4B (2-end aa) expressed in Sf9 cells using FAM-cAMP as substrate at 10xIC50 incubated for 60 mins by fluorescence plate reader analysis
# [27] = target: T1, 3',5'-cyclic-AMP phosphodiesterase 4B; assay: Inhibition of recombinant His-tagged PDE4B (unknown origin) expressed in Sf9 cells using cAMP as substrate preincubated for 15 mins followed by substrate addition and incubated for 1 hr by PDELight HTS cAMP phosphodiesterase Kit based luminometry
# [28] = Selectivity for recombinant His-tagged PDE4B (unknown origin) expressed in Sf9 cells over PDE4D2 (unknown origin); details: Homo sapiens
# [29] = target: cGMP-inhibited 3',5'-cyclic phosphodiesterase 3A (Homo sapiens) (UniProt Q14432); assay: Inhibition of recombinant PDE3A (unknown origin) using FAM-cAMP as substrate at 0.1xIC50 incubated for 60 mins by fluorescence plate reader analysis
# [30] = target: cGMP-inhibited 3',5'-cyclic phosphodiesterase 3B (Homo sapiens) (UniProt Q13370); assay: Inhibition of recombinant N-terminal GST-tagged human PDE3B (592-end aa) expressed in Sf9 cells using FAM-cAMP as substrate at 0.1xIC50 incubated for 60 mins by fluorescence plate reader analysis
# [31] = target: cGMP-inhibited 3',5'-cyclic phosphodiesterase 3A (Homo sapiens) (UniProt Q14432); assay: Inhibition of recombinant PDE3A (unknown origin) using FAM-cAMP as substrate at 1xIC50 incubated for 60 mins by fluorescence plate reader analysis
# [32] = target: cGMP-inhibited 3',5'-cyclic phosphodiesterase 3B (Homo sapiens) (UniProt Q13370); assay: Inhibition of recombinant N-terminal GST-tagged human PDE3B (592-end aa) expressed in Sf9 cells using FAM-cAMP as substrate at 1xIC50 incubated for 60 mins by fluorescence plate reader analysis
# [33] = target: cGMP-inhibited 3',5'-cyclic phosphodiesterase 3A (Homo sapiens) (UniProt Q14432); assay: Inhibition of recombinant PDE3A (unknown origin) using FAM-cAMP as substrate at 10xIC50 incubated for 60 mins by fluorescence plate reader analysis
# [34] = target: cGMP-inhibited 3',5'-cyclic phosphodiesterase 3B (Homo sapiens) (UniProt Q13370); assay: Inhibition of recombinant N-terminal GST-tagged human PDE3B (592-end aa) expressed in Sf9 cells using FAM-cAMP as substrate at 10xIC50 incubated for 60 mins by fluorescence plate reader analysis
# [35] = target: 3',5'-cyclic-AMP phosphodiesterase 7B (Homo sapiens) (UniProt Q9NP56); assay: Inhibition of recombinant N-terminal GST tagged and C-terminal His-tagged human PDE7B (109-ens aa) expressed in Sf9 cells using FAM-cAMP as substrate at 0.1xIC50 incubated for 60 mins by fluorescence plate reader analysis
# [36] = target: High affinity cAMP-specific and IBMX-insensitive 3',5'-cyclic phosphodiesterase 8A (Homo sapiens) (UniProt O60658); assay: Inhibition of recombinant N-terminal GST-tagged full length human PDE8A1 expressed in Sf9 cells using FAM-cAMP as substrate at 0.1xIC50 incubated for 60 mins by fluorescence plate reader analysis
# [37] = target: 3',5'-cyclic-AMP phosphodiesterase 7B (Homo sapiens) (UniProt Q9NP56); assay: Inhibition of recombinant N-terminal GST tagged and C-terminal His-tagged human PDE7B (109-ens aa) expressed in Sf9 cells using FAM-cAMP as substrate at 1xIC50 incubated for 60 mins by fluorescence plate reader analysis
# [38] = target: High affinity cAMP-specific and IBMX-insensitive 3',5'-cyclic phosphodiesterase 8A (Homo sapiens) (UniProt O60658); assay: Inhibition of recombinant N-terminal GST-tagged full length human PDE8A1 expressed in Sf9 cells using FAM-cAMP as substrate at 1xIC50 incubated for 60 mins by fluorescence plate reader analysis
# [39] = target: High affinity cAMP-specific and IBMX-insensitive 3',5'-cyclic phosphodiesterase 8A (Homo sapiens) (UniProt O60658); assay: Inhibition of recombinant N-terminal GST-tagged full length human PDE8A1 expressed in Sf9 cells using FAM-cAMP as substrate at 10xIC50 incubated for 60 mins by fluorescence plate reader analysis
# Chain of 3',5'-cyclic-AMP phosphodiesterase 4D (Q08499 whole entry): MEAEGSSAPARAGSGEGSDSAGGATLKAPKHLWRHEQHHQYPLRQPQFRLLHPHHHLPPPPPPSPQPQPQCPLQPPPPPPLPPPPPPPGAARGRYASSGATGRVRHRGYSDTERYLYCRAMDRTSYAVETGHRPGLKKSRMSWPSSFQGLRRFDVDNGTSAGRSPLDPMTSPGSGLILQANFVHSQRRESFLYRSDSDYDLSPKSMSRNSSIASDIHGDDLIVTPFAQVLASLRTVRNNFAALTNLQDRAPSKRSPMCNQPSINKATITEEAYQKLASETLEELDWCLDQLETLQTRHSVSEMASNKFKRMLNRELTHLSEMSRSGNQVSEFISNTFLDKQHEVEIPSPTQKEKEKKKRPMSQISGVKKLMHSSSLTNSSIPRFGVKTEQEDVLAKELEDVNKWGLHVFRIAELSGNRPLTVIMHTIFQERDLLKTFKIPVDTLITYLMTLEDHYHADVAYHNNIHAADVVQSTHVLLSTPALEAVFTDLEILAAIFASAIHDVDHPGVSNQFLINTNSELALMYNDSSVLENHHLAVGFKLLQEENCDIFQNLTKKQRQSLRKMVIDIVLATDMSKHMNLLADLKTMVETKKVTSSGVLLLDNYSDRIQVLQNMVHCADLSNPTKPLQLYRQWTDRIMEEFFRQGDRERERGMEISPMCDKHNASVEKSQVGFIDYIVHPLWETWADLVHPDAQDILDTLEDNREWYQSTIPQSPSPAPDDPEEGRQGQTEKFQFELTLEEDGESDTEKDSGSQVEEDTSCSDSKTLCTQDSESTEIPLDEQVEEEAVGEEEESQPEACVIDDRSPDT
# Chain of Dual specificity calcium/calmodulin-dependent 3',5'-cyclic nucleotide phosphodiesterase 1C (Homo sapiens) (Q14123 whole entry, the tested form may be a part): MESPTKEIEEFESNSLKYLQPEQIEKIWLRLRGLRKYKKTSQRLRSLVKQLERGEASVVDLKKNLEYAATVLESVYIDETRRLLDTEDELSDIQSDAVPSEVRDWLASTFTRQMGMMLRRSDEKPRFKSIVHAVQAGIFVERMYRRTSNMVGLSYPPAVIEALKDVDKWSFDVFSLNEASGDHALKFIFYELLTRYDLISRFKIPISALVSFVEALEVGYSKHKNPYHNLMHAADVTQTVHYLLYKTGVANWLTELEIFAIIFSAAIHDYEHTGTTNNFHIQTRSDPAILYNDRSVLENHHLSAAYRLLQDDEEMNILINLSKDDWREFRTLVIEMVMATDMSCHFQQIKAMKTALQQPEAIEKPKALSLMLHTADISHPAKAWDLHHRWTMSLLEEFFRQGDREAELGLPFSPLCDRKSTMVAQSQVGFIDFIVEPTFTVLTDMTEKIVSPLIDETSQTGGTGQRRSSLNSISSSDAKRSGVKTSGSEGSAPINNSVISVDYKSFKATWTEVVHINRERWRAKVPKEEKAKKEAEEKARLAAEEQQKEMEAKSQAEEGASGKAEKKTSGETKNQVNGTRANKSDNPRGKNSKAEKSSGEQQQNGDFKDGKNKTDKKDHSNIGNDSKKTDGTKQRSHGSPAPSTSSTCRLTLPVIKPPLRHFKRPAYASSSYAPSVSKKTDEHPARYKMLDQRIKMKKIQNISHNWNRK
# Chain of cGMP-inhibited 3',5'-cyclic phosphodiesterase 3B (Homo sapiens) (Q13370 whole entry, looked up): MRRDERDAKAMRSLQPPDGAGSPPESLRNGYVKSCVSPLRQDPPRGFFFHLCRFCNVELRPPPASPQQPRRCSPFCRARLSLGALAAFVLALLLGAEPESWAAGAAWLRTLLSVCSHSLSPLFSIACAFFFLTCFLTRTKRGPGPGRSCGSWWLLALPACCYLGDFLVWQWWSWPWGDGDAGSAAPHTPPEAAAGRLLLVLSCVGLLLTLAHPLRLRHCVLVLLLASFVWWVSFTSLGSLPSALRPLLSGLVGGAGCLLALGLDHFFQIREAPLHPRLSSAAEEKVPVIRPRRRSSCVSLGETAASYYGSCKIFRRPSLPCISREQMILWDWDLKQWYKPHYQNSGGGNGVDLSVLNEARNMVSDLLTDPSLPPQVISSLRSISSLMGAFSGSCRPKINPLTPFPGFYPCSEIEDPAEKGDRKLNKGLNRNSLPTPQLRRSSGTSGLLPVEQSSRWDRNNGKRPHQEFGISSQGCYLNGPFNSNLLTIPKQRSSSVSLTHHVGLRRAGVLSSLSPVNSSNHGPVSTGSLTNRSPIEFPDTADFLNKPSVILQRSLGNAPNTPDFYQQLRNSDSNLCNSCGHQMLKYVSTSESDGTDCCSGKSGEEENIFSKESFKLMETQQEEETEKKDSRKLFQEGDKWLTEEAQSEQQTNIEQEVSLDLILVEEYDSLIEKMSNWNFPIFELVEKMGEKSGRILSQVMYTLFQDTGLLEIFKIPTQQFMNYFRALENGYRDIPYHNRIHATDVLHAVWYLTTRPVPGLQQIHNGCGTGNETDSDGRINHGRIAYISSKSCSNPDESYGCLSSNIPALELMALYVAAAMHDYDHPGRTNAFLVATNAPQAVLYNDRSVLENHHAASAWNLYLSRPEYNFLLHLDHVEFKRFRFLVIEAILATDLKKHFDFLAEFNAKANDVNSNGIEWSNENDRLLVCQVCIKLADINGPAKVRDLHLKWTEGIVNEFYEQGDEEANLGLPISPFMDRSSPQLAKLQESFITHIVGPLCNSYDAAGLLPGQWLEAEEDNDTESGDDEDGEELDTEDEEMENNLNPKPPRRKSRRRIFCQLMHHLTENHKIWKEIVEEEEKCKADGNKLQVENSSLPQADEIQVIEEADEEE
# Chain of Dual specificity calcium/calmodulin-dependent 3',5'-cyclic nucleotide phosphodiesterase 1B (Homo sapiens) (Q01064 whole entry, the tested form may be a part): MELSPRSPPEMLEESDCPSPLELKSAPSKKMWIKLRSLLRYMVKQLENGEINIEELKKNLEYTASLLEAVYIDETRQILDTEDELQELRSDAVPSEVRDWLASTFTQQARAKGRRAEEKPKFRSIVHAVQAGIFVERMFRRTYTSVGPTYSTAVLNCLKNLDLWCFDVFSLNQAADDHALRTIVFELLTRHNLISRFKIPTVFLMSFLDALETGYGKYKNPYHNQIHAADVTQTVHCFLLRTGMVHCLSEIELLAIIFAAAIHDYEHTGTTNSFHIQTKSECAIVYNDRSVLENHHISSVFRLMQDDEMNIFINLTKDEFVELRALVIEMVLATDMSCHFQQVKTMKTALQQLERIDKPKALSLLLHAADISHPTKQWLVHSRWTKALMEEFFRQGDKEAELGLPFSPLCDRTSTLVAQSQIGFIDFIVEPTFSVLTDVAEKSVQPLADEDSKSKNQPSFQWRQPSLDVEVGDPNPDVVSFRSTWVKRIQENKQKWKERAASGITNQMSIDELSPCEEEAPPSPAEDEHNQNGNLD
# Chain of 3',5'-cyclic-AMP phosphodiesterase 4A (Homo sapiens) (P27815 whole entry): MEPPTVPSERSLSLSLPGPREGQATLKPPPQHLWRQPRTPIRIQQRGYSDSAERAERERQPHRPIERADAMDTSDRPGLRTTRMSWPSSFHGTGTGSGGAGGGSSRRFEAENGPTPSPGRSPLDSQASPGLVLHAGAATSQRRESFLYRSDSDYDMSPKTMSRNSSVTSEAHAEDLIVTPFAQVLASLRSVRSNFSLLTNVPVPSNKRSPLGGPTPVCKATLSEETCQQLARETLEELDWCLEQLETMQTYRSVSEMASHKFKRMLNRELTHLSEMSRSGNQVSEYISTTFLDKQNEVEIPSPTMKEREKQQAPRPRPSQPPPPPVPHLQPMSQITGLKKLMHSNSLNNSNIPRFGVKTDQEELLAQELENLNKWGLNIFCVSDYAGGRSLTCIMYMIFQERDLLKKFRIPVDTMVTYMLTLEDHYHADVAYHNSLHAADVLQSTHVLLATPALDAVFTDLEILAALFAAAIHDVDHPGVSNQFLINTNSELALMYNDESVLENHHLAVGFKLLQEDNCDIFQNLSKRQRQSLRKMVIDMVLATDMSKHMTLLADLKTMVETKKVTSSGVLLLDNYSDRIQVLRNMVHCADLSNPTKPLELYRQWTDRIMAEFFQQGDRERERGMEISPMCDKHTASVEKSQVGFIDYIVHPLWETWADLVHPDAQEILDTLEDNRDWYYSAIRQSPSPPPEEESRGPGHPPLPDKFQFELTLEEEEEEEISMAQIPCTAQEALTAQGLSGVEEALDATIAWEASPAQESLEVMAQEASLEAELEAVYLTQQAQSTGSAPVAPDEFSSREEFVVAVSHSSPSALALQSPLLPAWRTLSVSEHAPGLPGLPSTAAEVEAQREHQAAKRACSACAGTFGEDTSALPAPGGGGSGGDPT
# Chain of High affinity 3',5'-cyclic-AMP phosphodiesterase 7A (Homo sapiens) (Q13946 whole entry): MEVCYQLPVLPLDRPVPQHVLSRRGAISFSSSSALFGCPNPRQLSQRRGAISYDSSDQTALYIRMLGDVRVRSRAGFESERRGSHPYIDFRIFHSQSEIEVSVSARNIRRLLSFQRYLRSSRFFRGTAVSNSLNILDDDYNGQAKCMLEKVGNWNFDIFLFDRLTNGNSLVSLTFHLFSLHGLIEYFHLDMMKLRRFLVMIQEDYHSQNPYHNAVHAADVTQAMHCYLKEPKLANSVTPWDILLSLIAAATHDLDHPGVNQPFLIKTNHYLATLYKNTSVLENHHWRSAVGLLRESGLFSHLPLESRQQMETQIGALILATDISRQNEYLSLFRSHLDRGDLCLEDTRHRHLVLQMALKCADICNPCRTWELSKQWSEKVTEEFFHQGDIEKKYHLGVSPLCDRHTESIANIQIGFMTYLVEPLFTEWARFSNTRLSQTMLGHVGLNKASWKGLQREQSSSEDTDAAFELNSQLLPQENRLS
# Chain of Dual specificity calcium/calmodulin-dependent 3',5'-cyclic nucleotide phosphodiesterase 1A (Homo sapiens) (P54750 whole entry): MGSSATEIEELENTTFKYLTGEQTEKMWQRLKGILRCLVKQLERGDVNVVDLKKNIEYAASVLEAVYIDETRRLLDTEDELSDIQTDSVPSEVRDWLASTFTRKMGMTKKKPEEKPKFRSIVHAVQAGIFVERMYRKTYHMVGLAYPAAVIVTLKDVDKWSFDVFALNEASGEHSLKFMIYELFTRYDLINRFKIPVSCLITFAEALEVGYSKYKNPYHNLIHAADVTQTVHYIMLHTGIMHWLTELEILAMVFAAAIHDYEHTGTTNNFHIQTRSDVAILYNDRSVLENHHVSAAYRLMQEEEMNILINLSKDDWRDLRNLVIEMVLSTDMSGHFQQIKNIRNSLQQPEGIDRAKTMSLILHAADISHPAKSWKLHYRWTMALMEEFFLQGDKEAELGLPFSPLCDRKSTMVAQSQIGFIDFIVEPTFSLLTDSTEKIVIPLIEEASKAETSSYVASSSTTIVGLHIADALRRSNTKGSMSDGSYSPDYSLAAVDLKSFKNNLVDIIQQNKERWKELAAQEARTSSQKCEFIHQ
smiles,measurement,setting,value
CN(Cc1cnc2nc(N)nc(N)c2n1)c1ccc(C(=O)N[C@@H](CCC(=O)O)C(=O)O)cc1,inhibition,[1],Active
C=CCn1cc(-c2ncccc2C#N)c2cc(OC)ccc21,IC50,[2],1.98 µM
same,inhibition,[3],> 75%
Cc1ccc([N+](=O)[O-])cc1S(=O)(=O)N(C)C,inhibition,[4],10%
same,inhibition,[5],49%
same,inhibition,[6],88%
COC(=O)/C=C/c1[nH]c2ccccc2c1-c1nc2ccccc2nc1Cl,IC50,[2],3.88 µM
same,inhibition,[3],> 75%
CCOC(=O)Cn1cc(-c2nc3ccccc3nc2Cl)c2cc(OC)ccc21,IC50,[2],0.21 µM
same,inhibition,[3],> 75%
same,IC50,[7],15.2 µM
same,Ratio IC50,[8],72
same,"inhibition at 1 h, 100 µM",[9],20 to 30%
same,Selectivity ratio,[10],> 250
CCCCCCCCc1ccc(CCC(N)(CO)CO)cc1,inhibition,[11],Active
CCOC(=O)/C=C/c1c(-c2nc3ccccc3nc2Cl)c2cc(OC)ccc2n1C(C)C,IC50,[2],5.58 µM
same,inhibition,[3],> 75%
COC(=O)/C=C/c1c(-c2nc3ccccc3nc2Cl)c2cc(OC)ccc2n1C(C)C,IC50,[2],5.97 µM
same,inhibition,[3],> 75%
CCC(C)n1cc(-c2nc3ccccc3nc2Cl)c2cc(OC)ccc21 (stereo unspecified),IC50,[2],1.04 µM
same,inhibition,[3],> 75%
same,IC50,[7],4.93 µM
same,Ratio IC50,[8],4.75
CC(C)n1cc(-c2nc3ccccc3nc2Cl)c2cc(Br)ccc21,IC50,[2],9.74 µM
same,inhibition,[3],> 75%
C=CCn1cc(-c2nc3ccccc3nc2Cl)c2ccccc21,IC50,[2],4.67 µM
same,inhibition,[3],> 75%
same,IC50,[7],22 µM
same,Ratio IC50,[8],4.8
COc1ccc(Cc2nc(O)c3c(C)nc([C@@H](CCCc4ccccc4)[C@@H](C)O)n3n2)cc1OC,inhibition,[12],7%
same,inhibition,[13],16%
same,inhibition,[14],18%
same,inhibition,[15],52%
same,inhibition,[16],55%
same,inhibition,[17],52%
same,inhibition,[18],87%
same,inhibition,[19],86%
same,inhibition,[20],86%
COc1ccc2c(c1)c(-c1nc3ccccc3nc1Cl)cn2C(C)C,IC50,[2],0.44 µM
same,inhibition,[3],> 75%
same,IC50,[7],5.02 µM
same,Ratio IC50,[8],11.4
CCOc1cc([C@@H](CS(C)(=O)=O)N2C(=O)c3cccc(NC(C)=O)c3C2=O)ccc1OC,inhibition,[21],13%
same,inhibition,[22],8%
same,inhibition,[23],58%
same,inhibition,[24],57%
same,inhibition,[25],89%
same,inhibition,[26],91%
Cc1cc2c(s1)N(Cc1cc3cc(Br)ccc3n1S(C)(=O)=O)c1ccccc1N=C2N1CCN(C)CC1,IC50,[27],1.1 µM
same,Selectivity ratio,[28],> 10
CN(C(=O)CCCOc1ccc2[nH]c(=O)ccc2c1)C1CCCCC1,inhibition,[29],9%
same,inhibition,[30],17%
same,inhibition,[31],39%
same,inhibition,[32],61%
same,inhibition,[33],85%
same,inhibition,[34],94%
OCCN(CCO)c1nc(N2CCCCC2)c2nc(N(CCO)CCO)nc(N3CCCCC3)c2n1,inhibition,[35],3%
same,inhibition,[36],13%
same,inhibition,[37],48%
same,inhibition,[38],55%
same,inhibition,[39],88%
